Measured values from US7700584B2 (Hangzhou Minsheng Pharmaceuticals Co., Ltd., priority 2004, dated 2010).
In brackets after ≈: the same amount, converted by molar mass. Counter-ions that a name gives are not always drawn. Like-named read-outs stand apart in the source and are kept apart here.

Key:
Hepatitis B virus (HBV) = format: cell-based; settings: 200 μg/ml; for (Value of the positive control - Measured Value) Value of the positive control × 100%: decrease of HBeAg relative to positive control; for OD450 of HBeAg: supernatant four days after infection, positive control 1.917, negative 0.057
HepG2 cells = assay: Cell status of HepG2 cells treated with sample (HBV screening); format: cell-based; settings: 200 μg/ml, HepG2, four days after infection
[1] = tested on: Bel-7402 human hepatic carcinoma; assay: In vitro anti-tumor IC50 (MTT), Bel-7402; format: cell-based; settings: Homo sapiens, Bel-7402, Table 4; read-out: IC50 (ug/ml) against tumor cell lines, Bel-7402
Description: (§1) (1) Single cell suspension was seeded into 96-well plates (the cells was diluted in the PRMI-1640 minimum medium to 3×10^4 cells/ml, […] diluted cells/well). […] The experiments were performed in quadruplicate.
(§2) (2) The medium was removed. Solutions of the anti-tumor agents (50 compounds) were prepared in a freshly prepared medium at serial concentrations. […] of the solution was added into each well. Incubation was continued for 48 hours.
(§3) (3) 20 ug of 2 mg/ml MTT was added into each well, and incubated for 4 hours.
(§4) (4) The medium was removed from the well. The microplates were swiftly turned down to throw-off the medium. […] of DMSO was added into each well, and vortexed at room temperature for 10 minutes.
(§5) (5) OD value (λ=570 nm) was measured with an Enzyme-Linked Detector.
(§6) (6) The graph of cell vitality was plotted, and IC50 was calculated.

[2] = tested on: SMMC-7721 human hepatic carcinoma; assay: In vitro anti-tumor IC50 (MTT), SMMC-7721; format: cell-based; settings: Homo sapiens, SMMC-7721, Table 4; read-out: IC50 (ug/ml) against tumor cell lines, SMMC-7721
Description: as §1, §2, §3, §4, §5, §6

[3] = tested on: LLC mouse Lewis lung carcinoma; assay: In vitro anti-tumor IC50 (MTT), LLC; format: cell-based; settings: Mus musculus, Lewis lung carcinoma, Table 4; read-out: IC50 (ug/ml) against tumor cell lines, LLC
Description: as §1, §2, §3, §4, §5, §6

[4] = tested on: eight selected tumor cell lines; assay: In vitro anti-tumor IC50, summary over the selected tumor cell lines; format: cell-based; settings: for activity to Hela, U-937 and HL-60 cell lines (in words): Hela and U-937, also U-937 and HL-60 cell lines
Description: as §1, §2, §3, §4, §5, §6

[5] = tested on: A-549 human lung adenocarcinoma; assay: In vitro anti-tumor IC50 (MTT), A-549; format: cell-based; settings: Homo sapiens, A549, Table 4; read-out: IC50 (ug/ml) against tumor cell lines, A-549
Description: as §1, §2, §3, §4, §5, §6

[6] = tested on: mouse grafted liver cancer H22; assay: Activity against mouse grafted liver cancer H22; format: in vivo, Kunming mice; settings: for Tumor weight: X ± SD, n = 10; for inhibitory effect against mouse grafted liver cancer H22 (in words): three different concentrations (40, 20, 10 mg/kg), i.v.
Description: The experiments were performed according to “Guideline for New Drugs (Western medicines) in Pre-clinical Stages” issued by Bureau of Drug Policy & Administration of the People's Republic of China, and the relevant methods in “Methodology of Pharmaceutical Experiments”, Xu Shuyun et al. ed. 120 male Kunming mice weighting […] were allowed to grow 3 days. No abnormality was observed. The mice were routinely inoculated in oxter with mouse sarcoma S-180, and weighted 4 hrs. after inoculation. The mice were randomly divided into 12 groups, 10 mice/group. Group 1 was given 0.3 ml of physiological saline as negative control; Group 2 was given 5-FU as positive control, 0.6 mg/mouse; Group 3 was given hydroxycamptothecine as positive control, 0.02 mg/mouse. Groups 4, 5 and 6 were injected with 10% Compound 6, 0.4 ml/mouse, 0.2 ml/mouse, and 0.1 ml/mouse, respectively. Groups 7, 8 and 9 were injected with 10% Compound 8, 0.4 ml/mouse, 0.2 ml/mouse, and 0.1 ml/mouse, respectively. Groups 10, 11, and 12 were injected with 10% Compound 20, 0.4 ml/mouse, 0.2 ml/mouse, and 0.1 ml/mouse, respectively. The tested compounds were administered on the next day after inoculation, once a day on alternate days, 6 doses totally administered. On the next day after the end dose, the mice were weighed and sacrificed. After the tumor was excised, body weight and tumor weight were recorded. The tumor inhibition rate was calculated based on the following formula: [(average tumor weight of the control groups−average tumor weight of the experimental groups)/average tumor weight of the control groups]×100%. The data was processed statistically. The above experiments were repeated three times.
The experiments were identical with the experiments for activity against mouse grafted sarcoma S-180, except that the cell line inoculated was liver cancer H22. The experiments were repeated three times.

[7] = tested on: influenza A virus (Jifang 90-15); assay: microbe, parasite or virus in culture; format: cell-based
[8] = tested on: oral membrane herpes virus (VSV); format: cell-based
[9] = Solubility in water (observation); format: physicochemical
[10] = H22, first experiment, 10 mg/kg i.v., 6 doses
[11] = H22, first experiment, 20 mg/kg i.v., 6 doses
[12] = H22, first experiment, 40 mg/kg i.v., 6 doses
[13] = H22, second experiment, 10 mg/kg
[14] = H22, second experiment, 20 mg/kg
[15] = H22, second experiment, 40 mg/kg
[16] = H22, third experiment, 10 mg/kg
[17] = H22, third experiment, 20 mg/kg
[18] = H22, third experiment, 40 mg/kg

C=C1CC2(OC(=O)C(C)C)OC3(CC2C(C)C)C(C)CCC13 (centres unmarked) [Compound 3, Curcumol isobutyrate]
(Value of the positive control - Measured Value) Value of the positive control × 100% (Hepatitis B virus (HBV)): −36.1502%
OD450 of HBeAg (Hepatitis B virus (HBV)): 2.61
Cell status (HepG2 cells): Normal

CC(C)C1CC23OC1(O)C/C(=C\Nc1ccc(O)cc1)C2CCC3C (centres unmarked) [Compound 5, Curcumol p-hydroxy aniline]
IC50 [1]: 0.9 µg/mL (≈ 2.62 µM)
IC50 [2]: 4.3 µg/mL (≈ 12.5 µM)
IC50 [3]: 3.6 µg/mL (≈ 10.5 µM)
inhibitory effect to all the eight selected tumor cell lines (in words) ([4]; all eight cell lines): strong inhibitory effect
IC50 [5]: 2 µg/mL (≈ 5.82 µM)

CC(C)C1CC23OC1(O)CC(=CN1CCNCC1)C2CCC3C (centres unmarked) [Compound 7, Curcumol piperazine]
activity to Hela, U-937 and HL-60 cell lines (in words) [4]: excellent activity

CC(C)C1CC23OC1(O)CC(=CN1CCNCC1)C2CCC3C (centres unmarked) [Compound 8, Curcumol piperazine hydrochloride]
Tumor weight [6, 10]: 3.02 ± 0.33 g
Inhibition rate (%) [6, 11]: 4.0%
Tumor weight [6, 11]: 2.9 ± 0.39 g
Inhibition rate (%) [6, 12]: 37.1%
Tumor weight [6, 12]: 1.9 ± 0.36 g
Tumor weight [6, 13]: 3.10 ± 0.33 g
Inhibition rate (%) [6, 14]: 4.0%
Tumor weight [6, 14]: 2.9 ± 0.39 g
Inhibition rate (%) [6, 15]: 36.1%
Tumor weight [6, 15]: 1.93 ± 0.36 g
Inhibition rate (%) [6, 16]: 2.3%
Tumor weight [6, 16]: 2.95 ± 0.33 g
Inhibition rate (%) [6, 17]: 7.3%
Tumor weight [6, 17]: 2.8 ± 0.39 g
Inhibition rate (%) [6, 18]: 33.4%
Tumor weight [6, 18]: 2.01 ± 0.36 g
Average weight (g)-after administration ([6]; mouse, in vivo, 10 mg/kg): 20.3 g
Average weight(g)-after administration ([6]; mouse, in vivo, 10 mg/kg): 22.3 g
Average weight (g)-after administration ([6]; mouse, in vivo, 20 mg/kg): 20.9 g
Average weight(g)-after administration ([6]; mouse, in vivo, 20 mg/kg): 21.9 g
Average weight (g)-after administration ([6]; mouse, in vivo, 40 mg/kg): 21.9 g
Average weight(g)-after administration ([6]; mouse, in vivo, 40 mg/kg): 21.4 g
Average weight(g)-after administration ([6]; mouse, in vivo, iv, 10 mg/kg): 22.3 g
Average weight(g)-after administration ([6]; mouse, in vivo, iv, 20 mg/kg): 21.9 g
Average weight(g)-after administration ([6]; mouse, in vivo, iv, 40 mg/kg): 22.4 g
inhibitory effect against mouse grafted liver cancer H22 (in words) [6]: some inhibitory effect only when the concentration reached 40 mg/kg
activity to Hela, U-937 and HL-60 cell lines (in words) [4]: excellent activity

CC(C)C1CC23OC1(O)CC(=CBr)C2CCC3C (centres unmarked) [Compound 17, Curcumol monobromide]
(Value of the positive control - Measured Value) Value of the positive control × 100% (Hepatitis B virus (HBV)): 96.19%
OD450 of HBeAg (Hepatitis B virus (HBV)): 0.073
Cell status (HepG2 cells): Poor

C=C1CC2(OS(=O)(=O)O)OC3(CC2C(C)C)C(C)CCC13 (centres unmarked) [Compound 20, Curcumol sulfonate]
(Value of the positive control - Measured Value) Value of the positive control × 100% (Hepatitis B virus (HBV)): −14.8148%
OD450 of HBeAg (Hepatitis B virus (HBV)): 2.201
Cell status (HepG2 cells): Normal

C=C1CC2(OS(=O)(=O)[O-])OC3(CC2C(C)C)C(C)CCC13.[Na+] (centres unmarked) [Compound 21, Curcumol sodium sulfonate]
IC50 ([7]; Influenza A virus, CPE in MDCK cells): 47.7 µg/mL
SI, influenza A virus ([7]; SI = TC50/IC50): 20.96
(Value of the positive control - Measured Value) Value of the positive control × 100% (Hepatitis B virus (HBV)): 92.85%
OD450 of HBeAg (Hepatitis B virus (HBV)): 0.137
activity against VSV (in words) ([8]; 200 μg/ml): had the activity against VSV
activity against VSV (in words) ([8]; first round of the primary screening, 13 samples): some activities against VSV
solubility in water (in words) [9]: soluble in water
Average weight(g)-after administration [6, 10]: 22.1 g
Tumor weight [6, 10]: 3.00 ± 0.29 g
Average weight(g)-after administration [6, 11]: 22.0 g
Tumor weight [6, 11]: 3.03 ± 0.41 g
Average weight(g)-after administration [6, 12]: 22.1 g
Inhibition rate (%) [6, 12]: 4.0%
Tumor weight [6, 12]: 2.9 ± 0.31 g
Average weight(g)-after administration [6, 13]: 22.1 g
Tumor weight [6, 13]: 3.03 ± 0.29 g
Average weight(g)-after administration [6, 14]: 22.0 g
Tumor weight [6, 14]: 3.02 ± 0.41 g
Average weight(g)-after administration [6, 15]: 22.1 g
Inhibition rate (%) [6, 15]: 1.0%
Tumor weight [6, 15]: 3.0 ± 0.31 g
Average weight (g)-after administration [6, 16]: 22.1 g
Tumor weight [6, 16]: 3.02 ± 0.29 g
Average weight (g)-after administration [6, 17]: 21.0 g
Tumor weight [6, 17]: 3.01 ± 0.41 g
Average weight (g)-after administration [6, 18]: 20.1 g
Inhibition rate (%) [6, 18]: 1.0%
Tumor weight [6, 18]: 3.0 ± 0.31 g
inhibitory effect against mouse grafted liver cancer H22 (in words) [6]: little inhibitory effect
